Measurements: patent publication US20100330049A1, “METHOD FOR GENERATING ISLET BETA CELLS FROM DEDIFFERENTIATED EXOCRINE PANCREATIC CELLS” (Vrije Universiteit Brussel, priority 2008, published 2010)

Columns and labels:
Assay type in all cases: cell-based, rat
acinar cells = assay: acinar-to-beta cell conversion in monolayer culture with differentiation factors (immunocytochemical cell counts); conditions: for toxic effects on the epithelial monolayers: Jagged1 2 μg/ml, Dll4 5 μg/ml, 3 days culture; for beta cell neogenesis (acino-insular conversion): exposure of EGF and LIF treated cells to Notch1 ligands; for expression of Ngn3, Pdx1 and insulin / reduction of the number of newly formed beta cells: ligands immobilized on culture plates, EGF/LIF-treated acinar cells; for expression of Pdx1 during 72 h exposure to EGF and LIF (FIG. 2C) / expression of insulin during 72 h exposure to EGF and LIF (FIG. 2E) / re-expression of Ngn3 during 72 h exposure to EGF and LIF (FIG. 2A): n=7, compared to EGF and LIF controls
Text: Male 10-12 week old Wistar rats (Charles River Laboratories) weighing 250-300 g were used for the isolation of cells from the pancreas. Pancreata were partially dissociated with collagenase and exocrine acini were purified by centrifugal elutriation as published before (Rooman et al., 2000 Diabetologia 43:907-914). All animal experimentation was approved by the Ethical Committee of the Free University of Brussels.
Acinar cells were pre-cultured for 4 days in bacteriological Petri dishes (Nunc) in suspension culture in RPMI-1640 Glutamax-I medium supplemented with 10% fetal bovine serum (FBS, Invitrogen), penicillin (75 mg/l) (Continental Pharma) and antibiotics (Sigma, St Louis, Mo., USA). Geneticin Sulphate (50 μg/ml) (Sigma) was used to suppress fibroblast overgrowth in the culture. Medium was replaced daily during this pre-culture period. At the end of the pre-culture, cells were treated with alloxan (10 mM, Sigma) for 10 min at 37° C. to remove contaminating beta cells, and transferred to 24-well plates (Falcon, BD Biosciences) to form adherent cultures. Adherent monolayers were further cultured with RPMI supplemented with 1% FBS and antibiotics (controls). For growth factor stimulation of neogenesis this medium was supplemented with 50 ng/ml human recombinant epidermal growth factor (EGF) (Sigma,) and 40 ng/ml recombinant mouse leukemia inhibitory factor (LIF) (Sigma) (Baeyens et al. Diabetologia 48:49-57.). Stimulation of Notch signal transduction was performed using the recombinant human ligands Jagged1 (2 μg/ml, R&D Systems) and Dll4 (5 μg/ml, R&D Systems). For effective stimulation, the ligands were immobilized to the bottom of the multiwell plates prior to monolayer formation. Cell monolayers were analyzed after a culture period of 3 days in the latter media. […] Notch signaling inhibition was achieved using a recombinant form of the rat Notch1 extracellular domain (Notch1-EC, 10 μg/ml, R&D Systems). […] Proliferation was performed by bromo-deoxyuridin (BrdU) (Sigma) pulse labeling of 6 hours.
Immunocytochemical staining of the monolayers was performed directly in the 24-well plates. For this purpose, the cell monolayers were fixed for 10 min with 4% buffered formaldehyde followed by 20 min methanol (−20° C.) for cell permeabilization. Tissues were fixed with the same fixative for 4 hours and processed for paraffin embedding. Paraffin sections were used for immunostaining as described (Bouwens et al. 1994 Diabetes 43:1279-1283). Primary antibodies used in this study are polyclonal anti-insulin (C. Van Schravendijk, VUB, Brussels) (Bouwens et al. 1994 Diabetes 43:1279-1283; Bouwens and De 1996. J. Histochem. Cytochem. 44:947-951), polyclonal anti-rat C-peptide-I (O. D. Madsen, Hagedorn Research Institute, Gentofte, Denmark) (Blume et al. 1992. Mol. Endocrinol. 6:299-307), polyclonal anti-Pdx1 (O. D. Madsen) (Rooman et al. 2000 Diabetologia 43:907-914), polyclonal anti-Ngn3 (Schwitzgebel et al. 2000. Development 127:3533-3542), monoclonal anti-cytokeratin-20 (CK20) (Novocastra) (Bouwens et al. 1994 Diabetes 43:1279-1283; Bouwens and De 1996 J. Histochem. Cytochem. 44:947-951), monoclonal anti-synaptophysin (Novocastra), polyclonal anti-MafA (Bethyl Laboratories) (Nishimura et al. 2006 Dev. Biol. 293:526-539), polyclonal anti-Glut2 (Wak-Chemie), polyclonal anti-Mist1 (SF Konieczny) (Pin et al. 2000 Anat. Rec. 259:157-167), polyclonal anti-luciferase (Promega Benelux B. V.), polyclonal anti-IAPP (Advanced Chemtech), polyclonal anti-ChromograninA (Tebu-Bio), anti-BrdU (MP Biomedicals) and polyclonal anti-α-amylase (Sigma). Secondary antibodies conjugated with fluorescein isothiocyanate, tetramethylrodamine isothiocyanate or Cy5 (Jackson Immunoresearch) were used as described previously (Gu et al., 2002 Development 129:2447-2457). DNA was visualized using Hoechst 33342 (Invitrogen).

Notch1 mRNA = assay: knockdown efficiency of shRNA viruses, quantitative RT-PCR: Notch1 mRNA; conditions: corrected for actin, normalized to control virus Le-Scrambled-DsRed, n = 3
Text: (§1) Specific RNAi target sequences were developed using dedicated software available through the Whitehead Institute for Biomedical Research website (http://jura.wi.mit.edu/bio/) (Yuan et al. 2004 Nucleic Acids Res. 32:W130-W134). Corresponding oligo DNA molecules (Invitrogen) were cloned in the BglII and HindIII sites of the pSuper.basic vector (Oligoengine). Insert-containing clones were PCR-selected and sequenced. DNA from clones containing correct inserts was cut with EcoRI-ClaI, which released a DNA fragment containing the H1 promoter and the cloned oligo duplex, which was subsequently subcloned in the EcoRI-ClaI sites of the pTrip vector containing a DsRed reporter (Wiznerowicz and Trono 2003, J. Virol. 77:8957-8961). Screening for RNAi activity of the constructs was performed as follows: AR42J-B13 cells were plated at 70% confluency in 24 well plates at day 0. After allowing the cells to attach, 500 ng DNA of the appropriate pTrip constructs was transfected per well. After an additional 24 hours, cells were processed for quantitative RT-PCR analysis, in which 500 ng total RNA was used per condition.
(§2) The data illustrated in Table 7 represent the efficiency of knockdown of the different shRNA viruses, measured by quantitative RT-PCR. All samples are corrected for RNA input (endogenous control: actin) and normalized to conditions transduced with control virus (Le-Scrambled-DsRed). […]

Hes1 mRNA = assay: knockdown efficiency of shRNA viruses, quantitative RT-PCR: Hes1 mRNA; conditions: corrected for actin, normalized to control virus Le-Scrambled-DsRed, n = 3
Text: as §1, §2

Row | Substance | toxic effects on the epithelial monolayers (acinar cells) | beta cell neogenesis (acino-insular conversion) (acinar cells) | expression of Ngn3, Pdx1 and insulin (acinar cells) | reduction of the number of newly formed beta cells (acinar cells) [%] | expression of Pdx1 during 72 h exposure to EGF and LIF (FIG. 2C) (acinar cells) | expression of insulin during 72 h exposure to EGF and LIF (FIG. 2E) (acinar cells) | re-expression of Ngn3 during 72 h exposure to EGF and LIF (FIG. 2A) (acinar cells) | Notch1 mRNA expression (Mean ± SEM) (Notch1 mRNA) | Hes1 mRNA expression (Mean ± SEM) (Hes1 mRNA) | higher number of insulin-positive cells (acinar cells; Notch1-EC added to EGF and LIF) [fold] | cells adopting a beta cell phenotype (acinar cells; acinar cell culture, 0.5% in control conditions) | proportion of cells positive for Ngn3, Pdx1 and insulin (acinar cells; excess Notch1-EC in culture medium with EGF and LIF)
1 | Dll4: recombinant human Notch ligand, immobilized to the plate bottom | no toxic effects | near complete abrogation | strongly inhibited | 80 | prevents this expression | prevents this expression | almost completely abrogates this pattern | – | – | – | – | –
2 | Jagged1: recombinant human Notch ligand, immobilized to the plate bottom | no toxic effects | near complete abrogation | strongly inhibited | 80 | prevents this expression | prevents this expression | almost completely abrogates this pattern | – | – | – | – | –
3 | Le-Scrambled-DsRed: negative control RNAi lentivirus, shScrambled GGUAUCUACUAGAUGUACU (SEQ ID NO:3), DsRed reporter | – | – | – | – | – | – | – | 100.0 ± 0.0 | 100.0 ± 0.0 | – | – | –
4 | Notch1-EC: recombinant form of the rat Notch1 extracellular domain, Notch signaling inhibitor (R&D Systems) | – | – | – | – | amplifies the number of cells expressing Pdx1 | amplifies the number of insulin-positive cells | enhances the potency of the differentiation factors | – | – | 3 | more than 30% | marked increase
